In the supplement of paper PMC10307832:

Experiments:
Assay in all cases: relative viability (nuclei count vs DMSO), 5 days (fraction); higher = more cells survive
[1] = compound: COc1cc([C@@H]2c3cc4c(cc3[C@@H](O[C@@H]3O[C@@H]5CO[C@@H](C)O[C@H]5[C@H](O)[C@H]3O)[C@H]3COC(=O)[C@H]23)OCO4)cc(OC)c1O [Etoposide] + O=C(c1cc(Cc2n[nH]c(=O)c3ccccc23)ccc1F)N1CCN(C(=O)C2CC2)CC1 [Olaparib] (partner 8 µM)
How it was run: (§1)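 Lung cancer cell lines were seeded in 1536-well plates and dosed by pin tool the next day, with either a single drug or a fixed anchor-drug dose combined with five library-drug doses (not always all listed) spaced in √10 steps. Five days later, one step fixed the cells and stained their nuclei (final 0.05% Triton X-100, 1% formaldehyde, 1 ug/ml Hoechst), and nuclei were counted on 4× images. Relative viability is the nuclei count in treated wells divided by the count in vehicle wells, and each value is the median of duplicate plates.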

[2] = compound: COc1cc([C@@H]2c3cc4c(cc3[C@@H](O[C@@H]3O[C@@H]5CO[C@@H](C)O[C@H]5[C@H](O)[C@H]3O)[C@H]3COC(=O)[C@H]23)OCO4)cc(OC)c1O [Etoposide] + COc1cccc2cc(-c3nc([C@H]4CC[C@H](C(=O)O)CC4)n4ncnc(N)c34)[nH]c12 [OSI-027] (partner 0.5 µM)
How it was run: as §1

[3] = compound: COc1cc([C@@H]2c3cc4c(cc3[C@@H](O[C@@H]3O[C@@H]5CO[C@@H](C)O[C@H]5[C@H](O)[C@H]3O)[C@H]3COC(=O)[C@H]23)OCO4)cc(OC)c1O [Etoposide] + Nc1ncn([C@H]2C[C@H](O)[C@@H](CO)O2)c(=O)n1 [Decitabine] (partner 2 µM)
How it was run: as §1

[4] = compound: CC1=C(N=C(N=C1N)[C@H](CC(=O)N)NC[C@@H](C(=O)N)N)C(=O)N[C@@H]([C@H](C2=CN=CN2)OC3C(C(C(C(O3)CO)O)O)OC4C(C(C(C(O4)CO)O)OC(=O)N)O)C(=O)N[C@H](C)[C@H]([C@H](C)C(=O)N[C@@H]([C@@H](C)O)C(=O)NCCC5=NC(=CS5)C6=NC(=CS6)C(=O)NCCC[S+](C)C)O [Bleomycin] + Nc1nc2[nH]cc(CCc3ccc(C(=O)N[C@@H](CCC(=O)O)C(=O)O)cc3)c2c(=O)[nH]1 [Pemetrexed] (partner 0.2 µM); conditions: main component drawn
How it was run: as §1

| Cell Line | relative viability ([1]; first compound 0.01 µM) | relative viability ([1]; first compound 0.03162 µM) | relative viability ([1]; first compound 0.1 µM) | relative viability ([1]; first compound 0.3162 µM) | relative viability ([1]; first compound 1 µM) | relative viability ([2]; first compound 0.01 µM) | relative viability ([2]; first compound 0.03162 µM) | relative viability ([2]; first compound 0.1 µM) | relative viability ([2]; first compound 0.3162 µM) | relative viability ([2]; first compound 1 µM) | relative viability ([3]; first compound 0.01 µM) | relative viability ([3]; first compound 0.03162 µM) | relative viability ([3]; first compound 0.1 µM) | relative viability ([3]; first compound 0.3162 µM) | relative viability ([3]; first compound 1 µM) | relative viability ([4]; first compound 0.01 µM) | relative viability ([4]; first compound 0.03162 µM) | relative viability ([4]; first compound 0.1 µM) | relative viability ([4]; first compound 0.3162 µM) | relative viability ([4]; first compound 1 µM) |
| --- | --- | --- | --- | --- | --- | --- | --- | --- | --- | --- | --- | --- | --- | --- | --- | --- | --- | --- | --- | --- |
| HCC-44 | 1.02 | 1.04 | 1.04 | 0.918 | 0.543 | 0.625 | 0.524 | 0.52 | 0.505 | 0.294 | 1 | 1.06 | 0.984 | 0.905 | 0.55 | 0.625 | 0.666 | 0.586 | 0.526 | 0.401 |
| HCC-827 | 0.685 | 0.623 | 0.43 | 0.16 | 0.164 | 0.742 | 0.773 | 0.569 | 0.668 | 0.174 | 0.294 | 0.328 | 0.315 | 0.205 | 0.182 | 0.252 | – | 0.25 | 0.235 | 0.207 |
| NCI-H1623 | – | – | – | – | – | 0.438 | 0.497 | 0.386 | 0.413 | 0.322 | – | – | – | – | – | – | – | – | – | – |
| NCI-H2405 | 0.851 | 0.819 | 0.701 | 0.562 | 0.293 | 0.637 | 0.671 | 0.49 | 0.612 | 0.462 | 0.732 | 0.808 | 0.563 | 0.519 | 0.328 | 0.955 | 0.974 | 0.919 | 0.595 | 0.408 |
| PC-3 [JPC-3] | 0.992 | 0.928 | 1.14 | 1.07 | 0.794 | 0.657 | 0.731 | 0.636 | 0.736 | 0.689 | 0.813 | 0.921 | 0.836 | 0.737 | 0.692 | 1.03 | 1.18 | 0.948 | 0.647 | 0.526 |
| NCI-H1651 | 0.175 | 0.188 | 0.202 | 0.138 | 0.0965 | 0.591 | 0.641 | 0.438 | 0.44 | 0.155 | 0.612 | 0.688 | 0.442 | 0.241 | 0.128 | 0.629 | 0.501 | 0.433 | 0.366 | 0.285 |
| HARA | 0.698 | 0.764 | 0.652 | 0.376 | 0.206 | 0.517 | 0.554 | 0.151 | 0.422 | 0.118 | 0.556 | 0.578 | 0.573 | 0.399 | 0.301 | 0.219 | 0.228 | 0.237 | 0.169 | 0.217 |
| NCI-H1650 | 0.797 | 0.652 | 0.723 | 0.341 | 0.198 | 0.711 | 0.556 | 0.41 | 0.32 | 0.163 | 0.346 | 0.314 | 0.355 | 0.195 | 0.182 | 0.358 | 0.214 | 0.189 | 0.15 | 0.128 |
| NCI-H1395 | 0.444 | 0.453 | 0.458 | 0.479 | 0.397 | 0.625 | 0.759 | 0.506 | 0.605 | 0.469 | 0.726 | 0.755 | 0.681 | 0.667 | 0.653 | 0.64 | 0.702 | 0.566 | 0.4 | 0.371 |
| NCI-H2087 | 0.579 | 0.564 | 0.489 | 0.319 | 0.161 | 0.514 | 0.59 | 0.364 | 0.386 | 0.173 | 0.287 | 0.3 | 0.276 | 0.214 | 0.102 | 0.645 | 0.619 | 0.622 | 0.241 | 0.186 |
| LU99A | 0.277 | 0.28 | 0.205 | 0.139 | 0.118 | 0.307 | 0.343 | 0.242 | 0.308 | 0.228 | 0.893 | 0.928 | 0.504 | 0.473 | 0.246 | 0.158 | 0.157 | 0.159 | 0.165 | 0.133 |
| NCI-H1355 | 0.682 | 0.769 | 0.574 | 0.332 | 0.221 | 0.383 | 0.396 | 0.3 | 0.345 | 0.219 | 0.362 | 0.384 | 0.363 | 0.279 | 0.287 | 1 | 1.04 | 1.03 | 0.648 | 0.298 |
| HCC-78 | 0.679 | 0.795 | 0.553 | 0.259 | 0.235 | 0.387 | 0.392 | 0.345 | 0.376 | 0.281 | 0.669 | 0.697 | 0.429 | 0.317 | 0.265 | 0.895 | 0.969 | 0.88 | 0.832 | 0.826 |
| NCI-H1563 | – | – | – | – | – | 0.738 | 0.781 | 0.756 | 0.61 | 0.466 | – | – | – | – | – | 0.618 | 0.915 | 0.691 | 0.54 | 0.575 |
| HCC-15 | 0.699 | 0.613 | 0.629 | 0.266 | 0.162 | 0.785 | 0.718 | 0.563 | 0.291 | 0.144 | 0.667 | 0.665 | 0.668 | 0.286 | 0.174 | 0.22 | 0.193 | 0.233 | 0.193 | 0.154 |
| EKVX | 0.832 | 0.955 | 0.658 | 0.647 | 0.293 | 0.694 | 0.651 | 0.429 | 0.617 | 0.364 | 0.281 | 0.351 | 0.282 | 0.31 | 0.229 | 0.36 | 0.317 | 0.315 | 0.285 | 0.2 |
